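Each compound was tested at five concentrations against cells in 96-well plates for 48 hours. The concentration for 50% growth inhibition is given as GI50. TGI: total growth inhibition.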
Columns and labels:
Assay in all cases: NCI tumour cell line growth inhibition, 48 h
SF-295 CNS = test system: SF-295 CNS
K-562 leukemia = test system: K-562 leukemia
SK-OV-3 ovarian = test system: SK-OV-3 ovarian
M14 melanoma = test system: M14 melanoma
HT29 colon = test system: HT29 colon
EKVX NSCLC = test system: EKVX NSCLC
CCRF-CEM leukemia = test system: CCRF-CEM leukemia
HOP-62 NSCLC = test system: HOP-62 NSCLC
HCT-116 colon = test system: HCT-116 colon
SK-MEL-2 melanoma = test system: SK-MEL-2 melanoma

Row | SMILES | TGI (SF-295 CNS) | TGI (K-562 leukemia) | TGI (SK-OV-3 ovarian) | TGI (M14 melanoma) | TGI (HT29 colon) | TGI (EKVX NSCLC) | TGI (CCRF-CEM leukemia) | TGI (HOP-62 NSCLC) | TGI (HCT-116 colon) | TGI (SK-MEL-2 melanoma) | GI50 (SF-295 CNS) | GI50 (K-562 leukemia) | GI50 (SK-OV-3 ovarian) | GI50 (M14 melanoma) | GI50 (HT29 colon) | GI50 (EKVX NSCLC) | GI50 (CCRF-CEM leukemia) | GI50 (HOP-62 NSCLC) | GI50 (HCT-116 colon) | GI50 (SK-MEL-2 melanoma)
1 | Cc1ccc(NC(=O)C2C(=O)N(c3ccc(C)c(C)c3)C(=O)/C2=N/O)cc1C (stereo not given) | > 100 µM | > 100 µM | > 100 µM | > 100 µM | > 100 µM | > 100 µM | > 100 µM | > 100 µM | > 100 µM | > 100 µM | – | – | – | – | – | – | – | – | – | –
2 | CCOC(=O)c1c(C)n(Cc2ccc(OC)cc2)c2c1cc(O)c1[nH]c3c(c12)CCCC3 | 42.8 µM | > 100 µM | 51.3 µM | 34.2 µM | > 100 µM | 52.5 µM | > 100 µM | 24.9 µM | 12.1 µM | 7.05 µM | 13.7 µM | 5.22 µM | 9.47 µM | 11.8 µM | 12.9 µM | 4.9 µM | 4.22 µM | 10.5 µM | 2.74 µM | 2.39 µM
3 | CCCNC(=S)N/N=C(\C)c1ccccn1 | > 100 µM | > 100 µM | > 100 µM | 3.65 µM | > 100 µM | > 100 µM | > 100 µM | 17.6 µM | > 100 µM | > 100 µM | 0.294 µM | 0.0153 µM | 0.615 µM | 0.0681 µM | < 0.0127 µM | 0.119 µM | 0.018 µM | 0.517 µM | < 0.01 µM | 3.58 µM
4 | COC(=O)C1=C(c2ccc3c(c2)OCO3)O[C@H](c2ccc3c(c2)OCO3)[C@H]1COC(C)=O | > 100 µM | > 100 µM | > 100 µM | > 100 µM | > 100 µM | > 100 µM | > 100 µM | > 100 µM | > 100 µM | > 100 µM | – | – | – | – | – | – | – | – | – | –

Source: PubChem BioAssay (NCI)
